US20260001893A1, “SMALL MOLECULE MODULATORS OF STAT6” (Gilead Sciences, Inc., priority 2024, published 2026)

System: Eotaxin-3 (CCL26) release in human whole blood stimulated with IL-4
Test: Human whole blood eotaxin-3 assay (IL-4 stimulated eotaxin-3 release)
Format: cell-based
Settings: human whole blood stimulated with recombinant human IL-4, 48 h, geometric mean; for Emax: given for test compounds with <80% Emax; for EC50: inhibition of eotaxin-3 release, given for test compounds with >80% Emax
Method: Human Whole Blood Eotaxin-3 Assay
This was a human whole blood assay using recombinant human Interleukin 4 to stimulate the blood and measuring the ability of the test compounds to inhibit eotaxin-3 release. The biological activities of the test compounds have been tested in human whole blood stimulated with IL-4 measuring Eotaxin-3 release. The test compounds were added to 384 well clear flat-bottom plate in a 4-fold serial dilution in triplicates using a liquid handler. Human whole blood stabilized in lithium-heparin tubes was added in a volume of 65 μL per well, resulting in a final DMSO concentration of 0.5%. The plate is incubated for 2 h at 37° C. under 5% CO2/95% air. Subsequently, 5 μL of recombinant human IL-4 (R&D Systems, cat #204-ILB) was added to the wells to a final concentration of […]. The plate was incubated for 48 h at 37° C. under 5% CO2/95% air. The plate was spun down for 10 minutes at 500×g and 20 μL supernatant was harvested and transferred to a 384 well v-bottom plate using a liquid handler and stored at −20° C. until further analysis. 10 μL supernatant was used to measure the level of Eotaxin-3 (CCL26) using Human Eotaxin-3 MSD kit from Mesocsale (Cat #K251UEK-4). The assay was performed according to the manufacture instructions.
The data from the human whole blood eotaxin-3 assay is shown below for Examples 1ab3, 1ab6, 1d23, and 1d4 (where the effect in % is plotted against the test concentration in M on a log-scale).

EC50 (Homo sapiens, 48 h) | SMILES | further results
– | CNc1ccn(-c2ccnc3c2cc(CN2CC[C@@H](c4ccc(C(=O)N(C)C)cc4)C[C@@H]2C)n3C)c(=O)c1 (single isomer, unassigned) [Example 1d40] | Emax (Homo sapiens, 48 h): < 20%
150 nM | CNc1ccn(-c2ccnc3c2cc(CN2CC[C@@H](c4ccc(C(=O)N(C)C)cc4)C[C@H]2C)n3C)c(=O)c1 (single isomer, unassigned) [Example 1d42] | –
21.9 nM | CNc1ccn(-c2ccnc3c2cc(CN2CCC(c4ccc(C(=O)N(C)C)cc4)C[C@@H]2C)n3C)c(=O)c1 (single isomer, unassigned) [Example 1d43] | –
– | C[C@H](c1cc2c(-n3ccc(N)c(F)c3=O)ccnc2n1C)N1CC=C(c2ccc(C(=O)N(C)C)cn2)CC1 (single isomer, unassigned) [Example 1m76] | Emax (Homo sapiens, 48 h): < 20%
524 nM | C[C@@H](c1cc2c(-n3ccc(N)c(F)c3=O)ccnc2n1C)N1CC=C(c2ccc(C(=O)N(C)C)cn2)CC1 (single isomer, unassigned) [Example 1m77] | –
– | CNc1ccn(-c2ccnc3c2cc([C@H](C)N2CC=C(c4c(C)cc(C(=O)N(C)C)nc4C)CC2)n3C)c(=O)c1 (single isomer, unassigned) [Example 1m99] | Emax (Homo sapiens, 48 h): < 20%
440 nM | CNc1ccn(-c2ccnc3c2cc([C@@H](C)N2CC=C(c4c(C)cc(C(=O)N(C)C)nc4C)CC2)n3C)c(=O)c1 (single isomer, unassigned) [Example 1m100] | –
80.6 nM | CNc1ccn(-c2ccnc3c2cc([C@@H](C)N2CC=C(c4c(C)cc(C(=O)N(C)C)cc4F)CC2)n3C)c(=O)c1 (single isomer, unassigned) [Example 1m105] | –
– | Cc1cc(C(=O)N(C)C)cc(F)c1C1CCN([C@H](C)c2cc3c(-n4ccc5c(c4=O)CCN5)ccnc3n2C)CC1 (single isomer, unassigned) [Example 1m120] | Emax (Homo sapiens, 48 h): 40 to 50%
16.4 nM | Cc1cc(C(=O)N(C)C)cc(F)c1C1CCN([C@@H](C)c2cc3c(-n4ccc5c(c4=O)CCN5)ccnc3n2C)CC1 (single isomer, unassigned) [Example 1m121] | –
2900 nM | CN(C)C(=O)c1cc(F)c(C2=CCN(Cc3cc4c(-n5ccc6c(c5=O)CCN6)ccnc4n3C)CC2)cc1C1CC1 (single isomer, unassigned) [Example 1m134, 2-cyclopropyl-5-fluoro-N,N-dimethyl-4-(1-((1-methyl-4-(4-oxo-1,2,3,4-tetrahydro-5H-pyrrolo[3,2-c]pyridin-5-yl)-1H-pyrrolo[2,3-b]pyridin-2-yl)methyl)-1,2,3,6-tetrahydropyridin-4-yl)benzamide] | –
12.1 nM | CN(C)C(=O)c1cc(F)c(C2=CCN(Cc3cc4c(-n5ccc6c(c5=O)CCN6)ccnc4n3C)CC2)c(C2CC2)c1 (single isomer, unassigned) [Example 1m135, 3-cyclopropyl-5-fluoro-N,N-dimethyl-4-(1-((1-methyl-4-(4-oxo-1,2,3,4-tetrahydro-5H-pyrrolo[3,2-c]pyridin-5-yl)-1H-pyrrolo[2,3-b]pyridin-2-yl)methyl)-1,2,3,6-tetrahydropyridin-4-yl)benzamide] | –
– | CNc1ccn(-c2ccnc3c2cc([C@@H](C)N2CC[C@H](c4c(C)cc(C(=O)N(C)C)cc4F)C(F)(F)C2)n3C)c(=O)c1 (single isomer, unassigned) [Example 1m141] | EC50: 610 nM
855 nM | CNc1ccn(-c2ccnc3c2cc([C@@H](C)N2CC[C@@H](c4c(C)cc(C(=O)N(C)C)cc4F)C(F)(F)C2)n3C)c(=O)c1 (single isomer, unassigned) [Example 1m143] | –
2170 nM | CNc1ccn(-c2ccnc3c2cc([C@@H](C)N2CC[C@H](c4c(C)cc(C(=O)N(C)C)cc4F)C(F)(F)C2)n3C)c(=O)c1 (single isomer, unassigned) [Example 1m144] | –
279 nM | CNc1ccn(-c2ccnc3c2cc(CN2CCC(c4ccc(C(=O)N(C)C)cc4)C[C@H]2C)n3C)c(=O)c1 (stereo in doubt) [Example 1d41, N,N-dimethyl-4-[(2R,4S)-2-methyl-1-[[1-methyl-4-[4-(methylamino)-2-oxo-1-pyridyl]pyrrolo[2,3-b]pyridin-2-yl]methyl]-4-piperidyl]benzamide] | –
– | CNc1ccn(-c2ccnc3c2cc([C@H](C)N2CC[C@@H](c4c(C)cc(C(=O)N(C)C)cc4F)C(F)(F)C2)n3C)c(=O)c1 (stereo in doubt) [Example 1m142, 4-((S)-3,3-difluoro-1-((S)-1-(1-methyl-4-(4-(methylamino)-2-oxopyridin-1 (2H)-yl)-1H-pyrrolo[2,3-b]pyridin-2-yl)ethyl)piperidin-4-yl)-3-fluoro-N,N,5-trimethylbenzamide] | EC50: 13.6 nM
1530 nM | Cc1cc(C(=O)N(C)C)ccc1C1=CCN(Cc2cc3c(-n4ncc(N)cc4=O)ccnc3n2C)CC1 [Example 1ab5, 4-(1-((4-(4-Amino-6-oxopyridazin-1 (6H)-yl)-1-methyl-1H-pyrrolo[2,3-b]pyridin-2-yl)methyl)-1,2,3,6-tetrahydropyridin-4-yl)-N,N,3-trimethylbenzamide] | –
5.21 nM | [2H]C([2H])([2H])N(C(=O)c1cc(C)c(C2=CCN(Cc3cc4c(-n5ccc(N)cc5=O)ccnc4n3C)CC2)c(F)c1)C([2H])([2H])[2H] [Example 1ad5, 4-[1-[[4-(4-Amino-2-oxo-1-pyridyl)-1-methyl-pyrrolo[2,3-b]pyridin-2-yl]methyl]-3,6-dihydro-2H-pyridin-4-yl]-3-fluoro-5-methyl-N,N-bis(trideuteriomethyl)-benzamide] | –
6.09 nM | Cc1cc(C(=O)N(C)C)cc(F)c1C1=CCN(Cc2cc3c(-n4ccc(N)cc4=O)ccnc3n2C)CC1 [Example 1ad6, 4-[1-[[4-(4-Amino-2-oxo-1-pyridyl)-1-methyl-pyrrolo[2,3-b]pyridin-2-yl]methyl]-3,6-dihydro-2H-pyridin-4-yl]-3-fluoro-N,N,5-trimethyl-benzamide] | –
6.8 nM | [2H]C([2H])([2H])N(C(=O)c1cc(C)c(C2=CCN(Cc3cc4c(-n5ccc6c(c5=O)CCN6)ccnc4n3C)CC2)c(F)c1)C([2H])([2H])[2H] [Example 1ad7, 3-Fluoro-5-methyl-N,N-bis(methyl-d3)-4-(1-((1-methyl-4-(4-oxo-1,2,3,4-tetrahydro-5H-pyrrolo[3,2-c]pyridin-5-yl)-1H-pyrrolo[2,3-b]pyridin-2-yl)methyl)-1,2,3,6-tetrahydropyridin-4-yl)benzamide] | –
8.9 nM | [2H]C([2H])([2H])N(C(=O)c1cc(C)c(C2=CCN(Cc3cc4c(-n5ccc(NC)cc5=O)ccnc4n3C)CC2)c(F)c1)C([2H])([2H])[2H] [Example 1ad8, 3-Fluoro-5-methyl-N,N-bis(methyl-d3)-4-(1-((1-methyl-4-(4-(methylamino)-2-oxopyridin-1 (2H)-yl)-1H-pyrrolo[2,3-b]pyridin-2-yl)methyl)-1,2,3,6-tetrahydropyridin-4-yl)benzamide] | –
12.2 nM | Cc1cc(C(=O)N(C)C)cc(F)c1C1=CCN(Cc2cc3c(-n4cc(F)c(N)cc4=O)ccnc3n2C)CC1 [Example 1ad10, 4-(1-((4-(4-amino-5-fluoro-2-oxopyridin-1 (2H)-yl)-1-methyl-1H-pyrrolo[2,3-b]pyridin-2-yl)methyl)-1,2,3,6-tetrahydropyridin-4-yl)-3-fluoro-N,N,5-trimethylbenzamide] | –
11.3 nM | [2H]C([2H])([2H])N(C(=O)c1cc(C)c(C2=CCN(Cc3cc4c(-n5cc(F)c(N)cc5=O)ccnc4n3C)CC2)c(F)c1)C([2H])([2H])[2H] [Example 1ad11, 4-(1-((4-(4-amino-5-fluoro-2-oxopyridin-1 (2H)-yl)-1-methyl-1H-pyrrolo[2,3-b]pyridin-2-yl)methyl)-1,2,3,6-tetrahydropyridin-4-yl)-3-fluoro-5-methyl-N,N-bis(methyl-d3)benzamide] | –
– | [2H]C([2H])([2H])N(C(=O)c1ccc(C2CCN([C@@H](C)c3cc4c(-n5ncc(N)cc5=O)ccnc4n3C)CC2)cc1)C([2H])([2H])[2H] [Example 1af62, (S)-4-(1-(1-(4-(4-amino-6-oxopyridazin-1 (6H)-yl)-1-methyl-1H-pyrrolo[2,3-b]pyridin-2-yl)ethyl)piperidin-4-yl)-N,N-bis(methyl-d3)benzamide] | Emax (Homo sapiens, 48 h): 20 to 30%
– | [2H]C([2H])([2H])N(C(=O)c1ccc(C2=CCN(Cc3cc4c(-n5ccc6c(c5=O)CCN6)ccnc4n3C)CC2)cc1)C([2H])([2H])[2H] [Example 1af63, N,N-Bis(methyl-d3)-4-(1-((1-methyl-4-(4-oxo-1,2,3,4-tetrahydro-5H-pyrrolo[3,2-c]pyridin-5-yl)-1H-pyrrolo[2,3-b]pyridin-2-yl)methyl)-1,2,3,6-tetrahydropyridin-4-yl)benzamide] | Emax (Homo sapiens, 48 h): 30 to 40%
19.6 nM | [2H]C([2H])([2H])N(C(=O)c1ccc(C2CCN([C@@H](C)c3cc4c(-n5ccc(N)cc5=O)ccnc4n3C)CC2)cc1)C([2H])([2H])[2H] [Example 1af65, (S)-4-(1-(1-(4-(4-amino-2-oxopyridin-1 (2H)-yl)-1-methyl-1H-pyrrolo[2,3-b]pyridin-2-yl)ethyl)piperidin-4-yl)-N,N-bis(methyl-d3)benzamide] | –
